{"source": "patent US20160095923A1", "about": "“ORAL COMPOSITION COMPRISNG (+)-CATECHIN” (VALORE, priority 2013, published 2016)", "key": {"Solubility in water": {"assay": "Solubility in water", "assay_type": "physicochemical"}, "[1]": {"assay": "Bioavailability after oral administration or intravenous injection in Wistar rats (free/total polyphenol in plasma, LC-MS/MS)", "conditions": "per os", "description": "(§1) The experimental results described below were obtained on the basis of a study carried out in healthy human beings and in healthy Wistar rats weighing approximately 250 grams.\nAn acclimation period was observed before beginning the experiments.\nThe rats received an administration per os of a volume of 5 ml of a solution of active product.\n(§2) With regard to taking the blood samples from the rats and from the human beings, the blood was collected in tubes internally coated with EDTA and was then centrifuged at 3000 rpm (revolutions per minute) at ambient temperature for 45 min, and then for 15 min at a temperature of 4° C. The plasma was then collected and stored at −70° C. before analysis.\n(§3) The analytical technique (LC-MS/MS for Liquid Chromatography coupled to tandem Mass Spectrometry) for measuring the active substance in the blood was based on the method described by Mata-Bilbao et al., published in 2007 in the Journal of Agricultural and Food Chemistry, volume 55, page 8857.\n(§4) The free (+)-catechin was extracted from the plasma with a solution of phosphoric acid, EDTA and ascorbic acid and was then purified by SPE (solid phase extraction); in particular, it is an Oasis™ HLB extraction which is analyzed by LC-MS/MS. The quantification was carried out according to a standard calibration procedure with (+/−)-catechin-2,3,4-^13C3 as internal standard (SI).\nThe procedure is identical with regard to the extraction and the quantification of free quercetin or ECGC in the blood.\nWith regard to the extraction and quantification of the total (+)-catechin, the procedure is the same as that applied to the free (+)-catechin, with the exception of the fact that an additional step prior to the purification by SPE is carried out.\nEach of the mixtures is then solubilized in water.\nEach of the mixtures is solubilized in water."}, "rat skin": {"tested_on": "rat skin", "assay": "Total incorporation and incorporation into collagen of 3H-proline in the skin", "assay_type": "in vivo, Wistar rats", "conditions": "100 mg/kg by gavage for 5 days", "description": "To do this, a study was carried out in vivo on a batch of 24 female Wistar rats weighing from 95 to 115 g, divided into two groups C and D, each of 12 rats. For each group, the radioactive 3H-hydroxyproline, the specific activity of which is 13.6 Ci/10^−3 mol, was administered to all the animals by intraperitoneal injection of proline-L-(5-3H) at a dose, relative to the weight of the individuals, of 1 mCi/kg, which represents an activity in terms of radioactive 3H-proline of 100 μCi/individual.\n6 rats of each group received a treatment based on monomeric (+)-catechin by gavage in a proportion of 100 mg/kg for 5 days before sacrifice. […] The group C received monomeric (+)-catechin hydrochlorolysinate, while the group D received monomeric (+)-catechin ascorbolysinate.\nIn table 8, the level of incorporation is measured by the number of disintegrations of the radioactive 3H-hydroxyproline per minute (dpm) per mg of dry weight. The higher this number, the higher the concentration of 3H-hydroxyproline.\nIn this comparative example, a group E of 12 Wistar rats weighing from 95 to 115 g, in which radioactive 3H-hydroxyproline, the specific activity of which is 13.6 Ci/10^−3 mol, was administered to all the individuals by intraperitoneal injection of proline-L-(5-3H) at a dose, relative to the weight of the individuals, of 1 mCi/kg, which represents an activity in terms of radioactive 3H-proline of 100 ρCi/individual.\n6 rats of each group received a treatment based on pure monomeric (+)-catechin by gavage in a proportion of 100 mg/kg for 5 days before sacrifice.\nIn table 9, the level of incorporation is measured by the number of disintegrations of the radioactive 3H-hydroxyproline per minute (dpm) per mg of dry weight. The higher this number, the higher the concentration of 3H-hydroxyproline."}, "[2]": {"assay": "Bioavailability after oral administration in human beings (free monomeric (+)-catechin in plasma, LC-MS/MS)", "description": "as §1, §2, §3, §4\nThis complex salt is administered to a group A of 5 healthy volunteers.\nThis ct parameter makes it possible to calculate, from the data of table 1, the bioavailability of the (+)-catechin expressed in ng h/ml."}, "[3]": {"conditions": "free catechin, dose equivalent to 100 mg/kg catechin, 5 rats"}, "[4]": {"conditions": "free catechin, equivalent to 25 mg/kg, 3 rats (comparative example 4)"}, "[5]": {"conditions": "free catechin, equivalent to 25 mg/kg, 5 rats, mixture dissolved in water (comparative examples 6-9)"}, "[6]": {"conditions": "total (+)-catechin, equivalent to 25 mg/kg, 3 rats"}, "[7]": {"conditions": "group B, oral 1 g pure catechin, free catechin"}}}
{"smiles": "Oc1cc(O)c2c(c1)O[C@H](c1ccc(O)c(O)c1)[C@@H](O)C2", "note": "[CP, (+)-catechin]", "values": [{"measurement": "solubility in water", "setting": "Solubility in water; at 20° C.", "value": 0.9, "unit": "g per liter"}, {"measurement": "solubility in water, times lower than in the form of a complex", "setting": "Solubility in water; pure catechin versus complex with basic amino acid", "value": 400, "unit": "times"}, {"measurement": "Δct (difference of ct to CP)", "setting": "[1]; free catechin, dose equivalent to 100 mg/kg catechin", "value": 0, "unit": "%"}, {"measurement": "T (max)", "setting": "[1]; [3]", "value": 1, "unit": "h"}, {"measurement": "c (max)", "setting": "[1]; [3]", "value": 716, "unit": "ng/mL"}, {"measurement": "ct", "setting": "[1]; [3]", "value": "96 238 ng min/ml"}, {"measurement": "Δct (difference of ct to CP)", "setting": "[1]; free catechin, equivalent to 25 mg/kg (comparative example 4)", "value": 0, "unit": "%"}, {"measurement": "Δct (difference of ct to CP)", "setting": "[1]; free catechin, equivalent to 25 mg/kg (comparative examples 7-9)", "value": 0, "unit": "%"}, {"measurement": "T (max)", "setting": "[1]; [4]", "value": 0.5, "unit": "h"}, {"measurement": "c (max)", "setting": "[1]; [4]", "value": 154, "unit": "ng/mL"}, {"measurement": "ct", "setting": "[1]; [4]", "value": "21 145 ng min/ml"}, {"measurement": "T (max)", "setting": "[1]; [5]", "value": 1, "unit": "h"}, {"measurement": "c (max)", "setting": "[1]; [5]", "value": 580, "unit": "ng/mL"}, {"measurement": "Δct (difference of ct to CP)", "setting": "[1]; total (+)-catechin, equivalent to 25 mg/kg", "value": 0, "unit": "%"}, {"measurement": "T (max)", "setting": "[1]; [6]", "value": 0.5, "unit": "h"}, {"measurement": "c (max)", "setting": "[1]; [6]", "value": 2200, "unit": "ng/mL"}, {"measurement": "ct", "setting": "[1]; [6]", "value": "273 875 ng min/ml"}, {"measurement": "increase in the level of incorporation versus control", "setting": "rat skin", "value": "+16%"}, {"measurement": "level of incorporation into collagen (IC) of 3H-hydroxyproline in rat skin", "setting": "rat skin; treated subgroup", "value": "1124 ± 51", "unit": "dpm/mg"}, {"measurement": "level of total incorporation (IT) of 3H-hydroxyproline in rat skin", "setting": "rat skin; treated subgroup", "value": "5689 ± 410", "unit": "dpm/mg"}, {"measurement": "plasma concentration (cc) of free monomeric (+)-catechin", "setting": "[2]; group B, oral 1 g pure catechin, T 0.5 h", "value": "59 ± 61", "unit": "ng/mL"}, {"measurement": "plasma concentration (cc) of free monomeric (+)-catechin", "setting": "[2]; group B, oral 1 g pure catechin, T 1 h", "value": "266 ± 147", "unit": "ng/mL"}, {"measurement": "plasma concentration (cc) of free monomeric (+)-catechin", "setting": "[2]; group B, oral 1 g pure catechin, T 2 h", "value": "230 ± 87", "unit": "ng/mL"}, {"measurement": "plasma concentration (cc) of free monomeric (+)-catechin", "setting": "[2]; group B, oral 1 g pure catechin, T 3 h", "value": "226 ± 38", "unit": "ng/mL"}, {"measurement": "plasma concentration (cc) of free monomeric (+)-catechin", "setting": "[2]; group B, oral 1 g pure catechin, T 4 h", "value": "128 ± 51", "unit": "ng/mL"}, {"measurement": "plasma concentration (cc) of free monomeric (+)-catechin", "setting": "[2]; group B, oral 1 g pure catechin, T 6 h", "value": "27 ± 13", "unit": "ng/mL"}, {"measurement": "T (max)", "setting": "[2]; [7]", "value": 1.20, "unit": "h"}, {"measurement": "ct (total concentration, area under curve over 6 h)", "setting": "[2]; [7]", "value": "904 ± 163", "unit": "ng·h/mL"}, {"measurement": "c (max)", "setting": "[2]; oral 1 g pure catechin, free catechin", "value": 280, "unit": "ng/mL"}, {"measurement": "T (max)", "setting": "[2]; oral, humans, as stated in summary text", "value": 1.33, "unit": "h"}, {"measurement": "c (max) related to 0.92 g of pure (+)-catechin", "setting": "[2]; oral, scaled from 1 g to 0.92 g dose", "value": 258, "unit": "ng/mL"}, {"measurement": "ct related to 0.92 g of pure (+)-catechin", "setting": "[2]; oral, scaled from 1 g to 0.92 g dose, listed as pure (+)-catechin", "value": "832 ± 150", "unit": "ng·h/mL"}]}
